Test results reported in ChEMBL document CHEMBL4622882, “Discovery of a novel indole pharmacophore for the irreversible inhibition of myeloperoxidase (MPO)” (Bioorg Med Chem, 2020).
In brackets after ≈: the same amount, converted by molar mass. Activity calls are given as the source filed them. The calls are words filed in the database; no cut-off is given here.

Assays:
[1] = biological target: T1, Myeloperoxidase (Homo sapiens) (UniProt P05164); test: Inhibition of myeloperoxidase (unknown origin) assessed as partition ratio by Amplex red based fluorescence assay
T1 sequence (whole entry): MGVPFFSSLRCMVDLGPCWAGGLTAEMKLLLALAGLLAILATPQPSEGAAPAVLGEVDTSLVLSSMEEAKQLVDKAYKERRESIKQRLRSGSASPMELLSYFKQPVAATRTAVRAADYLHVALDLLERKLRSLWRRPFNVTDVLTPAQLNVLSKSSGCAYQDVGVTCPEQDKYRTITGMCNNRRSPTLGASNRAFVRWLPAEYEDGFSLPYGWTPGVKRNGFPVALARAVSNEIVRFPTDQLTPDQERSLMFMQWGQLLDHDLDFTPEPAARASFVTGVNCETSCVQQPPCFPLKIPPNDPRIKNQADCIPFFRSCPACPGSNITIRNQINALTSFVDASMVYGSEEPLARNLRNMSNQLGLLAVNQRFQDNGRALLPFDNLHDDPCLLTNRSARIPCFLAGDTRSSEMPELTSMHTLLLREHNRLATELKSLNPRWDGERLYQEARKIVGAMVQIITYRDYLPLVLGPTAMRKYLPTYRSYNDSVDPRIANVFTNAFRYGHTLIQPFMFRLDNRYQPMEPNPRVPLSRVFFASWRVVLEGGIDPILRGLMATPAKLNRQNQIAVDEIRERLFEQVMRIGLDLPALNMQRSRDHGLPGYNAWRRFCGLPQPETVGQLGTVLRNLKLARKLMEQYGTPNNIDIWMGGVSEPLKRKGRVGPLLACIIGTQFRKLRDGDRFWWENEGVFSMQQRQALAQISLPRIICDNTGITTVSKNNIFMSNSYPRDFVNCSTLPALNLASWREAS

Thyroid peroxidase = biological target: T2, Thyroid peroxidase (Homo sapiens, UniProt P07202); test: Inhibition of thyroid peroxidase (unknown origin)
T2 sequence (P07202 whole entry): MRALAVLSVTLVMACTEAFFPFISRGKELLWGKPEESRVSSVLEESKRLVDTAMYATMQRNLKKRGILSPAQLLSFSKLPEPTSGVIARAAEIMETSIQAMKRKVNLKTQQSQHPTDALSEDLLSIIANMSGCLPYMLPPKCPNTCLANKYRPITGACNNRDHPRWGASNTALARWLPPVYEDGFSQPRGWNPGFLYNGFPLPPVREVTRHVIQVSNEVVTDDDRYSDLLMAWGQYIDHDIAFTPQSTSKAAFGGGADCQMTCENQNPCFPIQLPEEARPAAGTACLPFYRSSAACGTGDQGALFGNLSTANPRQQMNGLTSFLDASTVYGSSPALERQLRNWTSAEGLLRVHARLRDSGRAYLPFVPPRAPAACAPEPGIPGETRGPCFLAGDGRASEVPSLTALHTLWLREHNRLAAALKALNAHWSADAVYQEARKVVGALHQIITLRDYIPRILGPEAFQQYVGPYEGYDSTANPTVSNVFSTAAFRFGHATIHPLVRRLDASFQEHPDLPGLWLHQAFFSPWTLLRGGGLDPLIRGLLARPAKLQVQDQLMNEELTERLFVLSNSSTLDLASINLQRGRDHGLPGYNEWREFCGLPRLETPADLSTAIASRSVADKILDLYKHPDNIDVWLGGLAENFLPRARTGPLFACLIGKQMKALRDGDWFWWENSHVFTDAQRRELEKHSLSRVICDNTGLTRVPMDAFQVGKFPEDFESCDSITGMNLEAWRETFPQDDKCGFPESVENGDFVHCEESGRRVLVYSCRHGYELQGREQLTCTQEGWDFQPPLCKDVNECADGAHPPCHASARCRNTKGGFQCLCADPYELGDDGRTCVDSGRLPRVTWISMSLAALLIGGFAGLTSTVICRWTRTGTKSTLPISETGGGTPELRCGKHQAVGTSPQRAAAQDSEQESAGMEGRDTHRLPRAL

Myeloperoxidase [2] = biological target: T3, Myeloperoxidase (Homo sapiens, UniProt P05164); test: Inhibition of myeloperoxidase (unknown origin)
T3 sequence (P05164 whole entry): T1 sequence (whole entry)

[3] = AUCinfinity in mouse at 10 mg/kg, po; type: ADME, organism-based; set-up: dose 10 mg/kg, route oral, time infinity; details: in vivo
[4] = Plasma protein binding in mouse at 1mg/kg, iv or 10 mg/kg, po; type: ADME, organism-based; details: read-out: PPB (converted)
[5] = Plasma clearance in mouse at 1 mg/kg, iv; type: ADME, organism-based
[6] = Elimination half life in mouse at 1 mg/kg, iv; type: ADME, organism-based; details: in vivo, read-out: beta t1/2 (converted)
[7] = biological target: Voltage-gated inwardly rectifying potassium channel KCNH2 (Homo sapiens, UniProt Q12809); test: Inhibition of human ERG
Voltage-gated inwardly rectifying potassium channel KCNH2, sequence (Q12809 whole entry): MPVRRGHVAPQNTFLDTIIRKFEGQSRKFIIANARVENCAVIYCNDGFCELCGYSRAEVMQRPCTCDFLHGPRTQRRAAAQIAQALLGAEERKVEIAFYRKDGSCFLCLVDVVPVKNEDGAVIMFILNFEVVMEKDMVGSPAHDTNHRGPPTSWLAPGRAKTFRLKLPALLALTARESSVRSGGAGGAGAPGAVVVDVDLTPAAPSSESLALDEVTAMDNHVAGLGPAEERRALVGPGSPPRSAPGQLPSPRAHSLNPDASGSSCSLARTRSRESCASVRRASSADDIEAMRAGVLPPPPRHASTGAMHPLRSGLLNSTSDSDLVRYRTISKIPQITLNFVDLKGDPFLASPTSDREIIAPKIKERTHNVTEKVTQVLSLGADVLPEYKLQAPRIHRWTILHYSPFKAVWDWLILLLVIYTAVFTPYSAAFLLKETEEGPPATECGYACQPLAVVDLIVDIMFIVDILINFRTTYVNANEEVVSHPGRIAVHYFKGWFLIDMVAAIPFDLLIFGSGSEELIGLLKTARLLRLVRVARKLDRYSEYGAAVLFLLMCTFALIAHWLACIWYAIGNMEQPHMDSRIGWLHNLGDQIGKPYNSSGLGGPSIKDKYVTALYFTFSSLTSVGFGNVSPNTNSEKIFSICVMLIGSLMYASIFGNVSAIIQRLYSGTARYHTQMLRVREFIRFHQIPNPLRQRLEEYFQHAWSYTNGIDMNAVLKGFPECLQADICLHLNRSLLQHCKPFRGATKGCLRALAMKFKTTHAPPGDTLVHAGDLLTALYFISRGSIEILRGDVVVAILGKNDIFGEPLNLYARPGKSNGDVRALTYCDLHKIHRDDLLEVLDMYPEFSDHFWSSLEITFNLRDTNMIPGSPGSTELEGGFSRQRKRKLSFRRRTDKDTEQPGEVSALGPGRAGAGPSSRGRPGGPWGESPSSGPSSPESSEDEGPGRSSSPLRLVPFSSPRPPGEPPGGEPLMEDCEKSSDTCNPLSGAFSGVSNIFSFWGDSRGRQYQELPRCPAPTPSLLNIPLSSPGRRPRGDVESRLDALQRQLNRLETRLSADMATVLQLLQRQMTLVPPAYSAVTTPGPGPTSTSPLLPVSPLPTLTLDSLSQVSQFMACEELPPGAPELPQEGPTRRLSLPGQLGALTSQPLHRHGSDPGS

[8] = biological target: T1, Myeloperoxidase (Homo sapiens); test: Irreversible inhibition of human myeloperoxidase using H2O2 as substrate at 200 fold dilution and measured after 72 hrs by dialysis method
Cytochrome P450 3A4 = Cytochrome P450 3A4 (Homo sapiens, UniProt P08684); test: Inhibition of CYP3A4 (unknown origin); type: ADME
Cytochrome P450 3A4, sequence (P08684 whole entry): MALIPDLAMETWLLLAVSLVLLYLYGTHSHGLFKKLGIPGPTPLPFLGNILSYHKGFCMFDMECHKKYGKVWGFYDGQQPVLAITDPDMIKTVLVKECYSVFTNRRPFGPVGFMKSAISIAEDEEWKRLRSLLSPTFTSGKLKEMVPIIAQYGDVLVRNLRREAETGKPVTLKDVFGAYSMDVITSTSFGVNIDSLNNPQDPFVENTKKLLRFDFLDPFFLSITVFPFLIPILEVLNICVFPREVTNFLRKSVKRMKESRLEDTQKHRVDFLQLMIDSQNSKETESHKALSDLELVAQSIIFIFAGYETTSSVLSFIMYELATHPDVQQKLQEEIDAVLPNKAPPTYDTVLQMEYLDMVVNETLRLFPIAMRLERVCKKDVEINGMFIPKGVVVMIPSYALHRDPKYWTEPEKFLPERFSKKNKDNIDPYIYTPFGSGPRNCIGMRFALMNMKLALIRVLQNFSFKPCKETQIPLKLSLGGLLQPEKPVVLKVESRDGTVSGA

Mus musculus = test: Antiinflammatory activity against mouse model of thioglycolate/zymosan A induced peritonitis assessed as decrease in myeloperoxidase activity at 90 mg/kg, po pretreated for 4 hrs followed by zymosan A stimulation by ELISA; type: functional; set-up: scale not given: the % may be the effect or the level left
[9] = biological target: T1, Myeloperoxidase (Homo sapiens); test: Inhibition of myeloperoxidase (unknown origin) assessed as ratio of Kinact to Ki
[10] = Unbound Cmax in mouse at 10 mg/kg, po; type: ADME, organism-based; details: in vivo
[11] = Cmax in mouse at 10 mg/kg, po; type: ADME, organism-based; set-up: dose 10 mg/kg, route oral; details: in vivo
Myeloperoxidase [12] = biological target: T3, Myeloperoxidase; test: Inhibition of human plasma myeloperoxidase
[13] = Volume of distribution at steady state in mouse at 1 mg/kg, iv; type: ADME, organism-based; details: in vivo, read-out: Vdss
[14] = Solubility of the compound at pH 6.8; type: physicochemical; details: buffer
[15] = Oral bioavailability in mouse at 10 mg/kg; type: ADME, organism-based; details: in vivo
Cytochrome P450 2D6 = Cytochrome P450 2D6 (Homo sapiens, UniProt P10635); test: Inhibition of CYP2D6 (unknown origin); type: ADME
Cytochrome P450 2D6, sequence (P10635 whole entry): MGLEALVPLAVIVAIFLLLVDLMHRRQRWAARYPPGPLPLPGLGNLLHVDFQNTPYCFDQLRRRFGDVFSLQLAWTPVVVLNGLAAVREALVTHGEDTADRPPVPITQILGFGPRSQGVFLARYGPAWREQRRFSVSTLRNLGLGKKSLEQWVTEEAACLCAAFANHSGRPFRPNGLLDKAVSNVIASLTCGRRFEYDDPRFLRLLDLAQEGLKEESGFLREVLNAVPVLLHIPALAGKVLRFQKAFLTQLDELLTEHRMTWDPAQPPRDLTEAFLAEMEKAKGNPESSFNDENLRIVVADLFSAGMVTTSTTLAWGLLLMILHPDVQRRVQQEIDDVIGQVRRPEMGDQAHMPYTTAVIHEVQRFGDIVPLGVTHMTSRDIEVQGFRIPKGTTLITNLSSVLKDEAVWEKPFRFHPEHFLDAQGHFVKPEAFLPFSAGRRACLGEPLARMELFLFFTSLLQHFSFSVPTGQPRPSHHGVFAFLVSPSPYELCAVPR

[16] = Volume of distribution at steady state in mouse at 0.5 mg/kg, iv; type: ADME, organism-based; details: in vivo, read-out: Vdss
[17] = Plasma protein binding in human; type: ADME, cell-free; details: read-out: PPB (converted)
[18] = Elimination half life in mouse at 0.5 mg/kg, iv; type: ADME, organism-based; details: in vivo, read-out: beta t1/2 (converted)
[19] = Plasma protein binding in mouse at 0.5 mg/kg, iv or 10 mg/kg, po; type: ADME, organism-based; details: read-out: PPB (converted)
[20] = biological target: T4, Thyroid peroxidase (Homo sapiens) (UniProt P07202); test: Irreversible inhibition of thyroid peroxidase (unknown origin) at 1000 fold dilution
T4 sequence (whole entry): T2 sequence (P07202 whole entry)

Armoracia rusticana = test: Irreversible inhibition of horseradish peroxidase at 1000 fold dilution
[21] = biological target: T1, Myeloperoxidase (Homo sapiens); test: Irreversible inhibition of myeloperoxidase (unknown origin) at 1000 fold dilution
[22] = biological target: T1, Myeloperoxidase (Homo sapiens); test: Irreversible inhibition of human myeloperoxidase assessed as residual activity using H2O2 as substrate at 200 fold dilution and measured after 72 hrs by dialysis method

SMILES | Ratio [1] | IC50 (Thyroid peroxidase) | IC50 (Myeloperoxidase [2]) | IC50 [7] | IC (Cytochrome P450 3A4) | Ratio [9] | IC50 (Myeloperoxidase [12]) | solubility [14] | IC (Cytochrome P450 2D6) | further results
NC[C@H]1C[C@H](n2cc(-c3ccc4cc[nH]c4c3)c(C(F)(F)F)n2)C1 | 6.7 | > 30000 nM | 170 nM |  |  |  |  |  |  | 
CN(C)Cc1ccc(-n2cc(-c3ccc4cc[nH]c4c3)c3c(Cl)ccnc32)cc1 | 3.7 | 5300 nM | 120 nM | 1700 nM | 17 µM | 210000 M⁻¹ s⁻¹ | 2600 nM | 21 µM (≈ 8.42 µg/mL) | 21 µM | AUC(0-inf) [3]: 2.49 µM·h; fraction unbound [4]: 0.004; clearance [5]: 64.7 mL/min/kg; half-life [6]: 2.6 h; inhibition [8]: Active; Activity (Mus musculus): 50%; fCmax [10]: 2 nM; Cmax [11]: 502 nM; Vd [13]: 9.8 L/kg; bioavailability [15]: 61%
NCc1ccc(-n2cc(-c3ccc4cc[nH]c4c3)c(C(F)(F)F)n2)cc1 | 0.4 | > 30000 nM | 30 nM | 4000 nM | 3.8 µM | 430000 M⁻¹ s⁻¹ | 360 nM | 62 µM (≈ 22.1 µg/mL) | 1.4 µM | 
N[C@@H]1CC[C@@H](n2cc(-c3ccc4cc[nH]c4c3)c(C(F)(F)F)n2)C1 | 3.1 | > 30000 nM | 70 nM | 17000 nM | 34 µM | 230000 M⁻¹ s⁻¹ | 170 nM | 587 µM (≈ 196 µg/mL) | > 50 µM | Vd [16]: 2.1 L/kg; AUC(0-inf) [3]: 22.9 µM·h; fraction unbound [17]: 0.034; clearance [5]: 16.1 mL/min/kg; half-life [18]: 4.5 h; fraction unbound [19]: 0.027; Cmax [11]: 1990 nM; bioavailability [15]: 40%
O=C(O)CCn1cc(-c2ccc3cc[nH]c3c2)c(C(F)(F)F)n1 | > 200 |  | 5200 nM |  |  |  |  |  |  | 
NC(=O)Cn1cc(-c2ccc3cc[nH]c3c2)c(C(F)(F)F)n1 | > 200 | > 30000 nM | 2000 nM |  |  |  |  |  |  | 
NCCCCn1cc(-c2ccc3cc[nH]c3c2)c(C(F)(F)F)n1 | 42 | > 30000 nM | 330 nM | 1900 nM | > 50 µM | 61000 M⁻¹ s⁻¹ | 900 nM | 73 µM (≈ 23.5 µg/mL) | 43 µM | 
N[C@@H](c1ccc(-n2cc(-c3ccc4cc[nH]c4c3)c(C(F)(F)F)n2)cc1)C(F)(F)F | 17 | > 30000 nM | 420 nM | > 30000 nM | 17 µM | 122000 M⁻¹ s⁻¹ | 18000 nM | 21 µM (≈ 8.91 µg/mL) | 21 µM | 
NC(=O)CCn1cc(-c2ccc3cc[nH]c3c2)c(C(F)(F)F)n1 | > 200 | > 30000 nM | 4200 nM |  |  |  |  |  |  | 
Nc1ncnc2c1c(-c1ccc3cc[nH]c3c1)cn2-c1ccc(OCCNCCO)cc1 | 141 | 30000 nM | 220 nM | 2800 nM | > 50 µM | 23000 M⁻¹ s⁻¹ |  | 46 µM (≈ 19.7 µg/mL) | > 50 µM | inhibition [20]: inactive; inhibition (Armoracia rusticana): inactive; inhibition [21]: Active; Activity [22]: > 95%
FC(F)(F)c1nn(-c2ccc(Cc3nc[nH]n3)cc2)cc1-c1ccc2cc[nH]c2c1 | 12 | 5900 nM | 250 nM | > 30000 nM | 6.9 µM | 106000 M⁻¹ s⁻¹ | 23000 nM | 11 µM (≈ 4.49 µg/mL) | 0.5 µM | 
